Reference: patent publication US6455577B2, “Flavanone derivatives and composition for preventing or treating blood lipid level-related diseases comprising same” (Korea Research Institute of Bioscience and Biotechnology, priority 2000, dated 2002)

Assays:
HMG-CoA reductase = molecular target: T1, HMG-CoA reductase (Rattus norvegicus, UniProt P51639); assay: HMG-CoA reductase activity in liver microsomes of fed rats; format: in vivo
T1 construct: microsomes were separated from liver tissues to be used as an enzyme source; from tissue; host or cells: liver microsomes of fed rats
T1 sequence (P51639 1-887): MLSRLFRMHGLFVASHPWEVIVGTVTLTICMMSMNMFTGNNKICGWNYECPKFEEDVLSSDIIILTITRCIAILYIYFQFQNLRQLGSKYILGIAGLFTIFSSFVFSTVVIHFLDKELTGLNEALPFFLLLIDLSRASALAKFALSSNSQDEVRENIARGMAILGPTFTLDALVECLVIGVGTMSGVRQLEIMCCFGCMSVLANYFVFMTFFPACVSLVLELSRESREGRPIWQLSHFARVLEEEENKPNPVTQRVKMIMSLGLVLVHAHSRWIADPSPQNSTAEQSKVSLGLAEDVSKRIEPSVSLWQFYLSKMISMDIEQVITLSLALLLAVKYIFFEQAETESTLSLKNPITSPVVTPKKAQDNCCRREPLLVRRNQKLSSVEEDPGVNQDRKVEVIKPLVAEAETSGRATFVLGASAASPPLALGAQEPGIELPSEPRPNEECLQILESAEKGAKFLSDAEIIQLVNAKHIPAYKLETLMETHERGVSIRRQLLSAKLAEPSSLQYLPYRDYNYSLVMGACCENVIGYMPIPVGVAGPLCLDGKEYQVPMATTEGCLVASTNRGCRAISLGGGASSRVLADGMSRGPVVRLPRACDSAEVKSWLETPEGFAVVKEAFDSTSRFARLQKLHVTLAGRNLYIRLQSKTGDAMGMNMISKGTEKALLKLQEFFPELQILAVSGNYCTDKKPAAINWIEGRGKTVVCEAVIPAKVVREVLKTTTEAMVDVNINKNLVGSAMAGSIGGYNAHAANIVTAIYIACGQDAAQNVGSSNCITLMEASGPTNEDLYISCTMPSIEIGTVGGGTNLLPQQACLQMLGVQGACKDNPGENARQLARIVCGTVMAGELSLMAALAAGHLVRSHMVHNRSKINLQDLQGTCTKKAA
Description: To determine the effect of feeding NG5006 to rats on the activities of ACAT and HMG-CoA reductase, microsomes were separated from liver tissues to be used as an enzyme source.
1 g each of the livers taken from each group of rats of Example 12 was homogenized in 5 ml of homogenization medium(0. 1 M KH2PO4, pH 7.4, 0.1 mM EDTA and 10 mM β-mercaptoethanol). The homogenate was centrifuged at 3,000×g for 10 min. at 4° C. and the supernatant thus obtained was centrifuged at 15,000×g for 15 min. at 4° C. to obtain a supernatant. The supernatant was put into an ultracentrifuge tube(Beckman) and centrifuged at 100,000×g for 1 hour at 4° C. to obtain microsomal pellets, which were then suspended in 3 ml of the homogenization medium and centrifuged at 100,000×g for 1 hour at 4° C. The pellets thus obtained were suspended in 1 ml of the homogenization medium. The protein concentration of the resulting suspension was determined by Lowry's method and then adjusted to 4 to 8 mg/ml. The resulting suspension was stored in a deep freezer(Biofreezer, Forma Scientific Inc.).
The activity of HMG-CoA reductase was determined by employing [^14C]HMG-CoA, in accordance with the method of Shapiro et al.(Biochemica et Biophysica Acta, 370, 369-377(1974)) as follows.
The enzyme in the supernatant containing the microsome obtained in (Step 1) was activated at 37° C. for 30 min. Added to a reaction tube were 20 μl of HMG-CoA reductase assay buffer(0.25M KH2PO4(pH 7.0), 8.75 mM EDTA, 25 mM DTT, 0.45 M KCl and 0.25 mg/ml BSA), 5 μl of 50 mM NADPH, 5 μl of [^14C]HMG-CoA(0.05μ Ci/tube, final conc. 120μM), and 10 μl of activated microsomal enzyme(0.03-0.04 mg), and the mixture was incubated at 37° C. for 30 min. […] A region having a Rf value ranging from 0.65 to 0.75 was removed by scraping with a disposable cover slips and assayed for radioactivity with 1450 Microbeta liquid scintillation counter(Wallac Co., Finland). Enzyme activities were calculated as picomoles mevalonic acid synthesized per min. per mg protein(pmoles/min/mg protein).

ACAT = ACAT activity in fed rabbits; format: in vivo, rabbit; details: rabbits fed 1% cholesterol plus 1 mg/kg Lovastatin or 0.1% NG5006, 8 weeks
Description: 22 three-month-old New Zealand White rabbits(Yeonam Horticulture and Animal Husbandry College, Korea) each weighing about 2.0 to 2.3 kg were bred under a condition of temperature 20±2° C., relative humidity 55±10%, and photoperiod 12L/12D. The rabbits were divided two groups of 6 rabbits and a group of 10 rabbits, and the rats of three groups were fed with three different diets, i.e., RC4 diet(Oriental Yeast Co., Japan) containing 1% cholesterol(Control group); 1% cholesterol plus 1 mg/kg Lovastatin® (Merck, U.S.A.)(Comparative group); and 1% cholesterol plus 0.1% NG5006, respectively. RC4 diet comprises 7.6% moisture, 22.8% crude protein, 2.8% crude fat, 8.8% crude ash, 14.4% crude cellulose and 43.6% soluble nitrogen-free substances. The rabbits were bred for 8 weeks while being allowed free access to the diets and water.
The effect of feeding NG5006 to rabbits on the activities of ACAT was determined using the rabbits bred in Step 1 of Example 14 in accordance with procedure disclosed in step 1 of Example 13.

In the case of `CCCCCCCCCCCCCCCCOc1cc(O)c2c(c1)OC(c1ccc(O)cc1)CC2=O` (stereo not shown) [NG5006, Naringenin 7-O-cetyl Ether], the “HMG-CoA activity lower than that of the control group” value (HMG-CoA reductase; NG5006-fed rat group) was 27.5%, the HMG-CoA reductase activity (HMG-CoA reductase; liver microsomes of rats fed 1% cholesterol plus 0.02% naringenin or 0.036% NG5006, six weeks) was 81.6 ± 6.0 pmole/min/mg protein and the ACAT activity (ACAT) was 215.2 ± 30.3 pmole/min/mg protein. For the same molecule, the “% Inhibition on ACAT Activity” value (ACAT; versus control group) was 16.2%.
